Source: patent publication US7321074B1, “Melanocortin-3 receptor deficient cells, non-human transgenic animals and methods of selecting compounds which regulate body weight” (Merck & Co., Inc., priority 1999, dated 2008)

Assay: Peripheral MTII administration: food consumption in MC-3R−/− and WT mice
Conditions: single intraperitoneal injection, 10 mg/kg, n=9
Description: Food intake measurements—MC-3R^−/−, MC-3R^+/−, and WT mice were separated into individual microisolator cages at approximately one month of age. For studies involving regular mouse chow (Teklad 7012; 5% fat, 19% protein, and 5% of fiber; 3.75 grams/Kcal and 14.8% Kcal. from fat), pellet food was provided in wire cage tops containing food hoppers and food was weighed weekly. For studies involving a high fat diet (Teklad 97070; 33.5% fat, 27.4% protein, and 26.5% carbohydrates; 60% calories from fat), ground food was provided in a glass jar located in the cage and the jar containing the food was weighed either daily or weekly.
Peripheral MTII administration—For seven consecutive days, individually-housed 23-25-week-old male MC-3R^−/− (n=9) and WT (n=9) mice received an intraperitoneal (ip) injection of a sterile 0.9% NaCl vehicle solution approximately 30 min before the onset of the dark phase of the light cycle. At the same time on the eighth consecutive day of the study, mice received an ip injection of MTII at a dose of 10 mg/kg delivered in vehicle. Body and food (Teklad 7012) weights were measured and recorded daily approximately 15 min prior to injection.

MTII
reduction of food consumption over a 24-h period relative to a 2-day vehicle treatment baseline (male MC-3R−/− mice): 16.9±7.0 % reduction | reduction of food consumption over a 24-h period relative to a 2-day vehicle treatment baseline (male WT mice): 11.1±4.3 % reduction
